Measurements reported in US5300629A, “Bactericidal and/or bacteriostatic peptides isolated from hemolymph of honeybees” (Plant Genetic Systems, N.V., priority 1987, dated 1994).
≈ marks a conversion by molar mass, not a printed value. Where a SMILES comes first, the peptide text is derived from it.

Columns and labels:
Assay type in all cases: cell-based
[1] = test system: Agrobactierium tumefaciens DSM 3129; experiment: Minimal inhibitory concentration in liquid culture; settings: 200 μl rich medium, 10^4 log-phase bacteria
[2] = test system: Pseudomonas syringae pv. tabaci NCPPB 1237; experiment: Minimal inhibitory concentration in liquid culture; settings: 200 μl rich medium, 10^4 log-phase bacteria
Shigella flexneri CP 87 = experiment: Minimal inhibitory concentration in liquid culture; settings: 200 μl rich medium, 10^4 log-phase bacteria
Description: (§1) In addition the exact concentration was determined precisely by amino-acid analysis and an equal sample of natural Bee 6b was prepared, allowing to compare the bactericidal activity of both natural and synthetic apidaecins by means of growth inhibition assays in liquid cultures (see mat & Meth.). The minimal inhibitory concentrations (μg/ml) were determined in liquid culture : 200 μl of a rich medium (trypticase soy broth or nutrient broth) was inoculated with 10^4 log-phase bacteria. Peptide concentrations ranged between 0 and 200 μg/ml. The values express μg/ml; when no inhibition was noticed the maximal values are given (+200 μg/ml or +50 μg/ml). All peptides were chemically synthesized, except for bee 6b which is purified from bee lymph.

[3] = test system: Xanthomonas campestris pv. vesicatoria LMG 905; experiment: Minimal inhibitory concentration in liquid culture; settings: 200 μl rich medium, 10^4 log-phase bacteria, + = no inhibition at maximal value
Description: as §1

[4] = test system: Corynebacterium insidiosum NCPPB 1109; experiment: Minimal inhibitory concentration in liquid culture; settings: 200 μl rich medium, 10^4 log-phase bacteria
Description: as §1

[5] = test system: Corynebacterium michiganense pv. michiganense NCPPB 1573; experiment: Minimal inhibitory concentration in liquid culture; settings: 200 μl rich medium, 10^4 log-phase bacteria, + = no inhibition at maximal value
Description: as §1

[6] = test system: Pseudomonas syringae pv. maculicola NCPPB 1776; experiment: Minimal inhibitory concentration in liquid culture; settings: 200 μl rich medium, 10^4 log-phase bacteria
[7] = test system: Pseudomonas syringae pv. tomato NCPPB 1106; experiment: Minimal inhibitory concentration in liquid culture; settings: 200 μl rich medium, 10^4 log-phase bacteria
[8] = test system: Erwinia carotovora var carotovora NCPPB 312; experiment: Minimal inhibitory concentration in liquid culture; settings: 200 μl rich medium, 10^4 log-phase bacteria
[9] = test system: Escherichia coli NCTC 9001; experiment: Minimal inhibitory concentration in liquid culture; settings: 200 μl rich medium, 10^4 log-phase bacteria
Bacillus alvei LMG 6922 = experiment: Minimal inhibitory concentration in liquid culture; settings: 200 μl rich medium, 10^4 log-phase bacteria, + = no inhibition at maximal value
[10] = test system: Bacillus subtilis NRRL-B-237; experiment: Minimal inhibitory concentration in liquid culture; settings: 200 μl rich medium, 10^4 log-phase bacteria, + = no inhibition at maximal value
E. coli NCTC 9001 = experiment: Bactericidal activity, method not stated; settings: lyophilized apidaecins resuspended in PBS
[11] = test system: Rhizobium meliloti ZB 314; experiment: Minimal inhibitory concentration in liquid culture; settings: 200 μl rich medium, 10^4 log-phase bacteria
[12] = test system: Citrobacter freundii ATCC 8090; experiment: Minimal inhibitory concentration in liquid culture; settings: 200 μl rich medium, 10^4 log-phase bacteria
[13] = test system: Erwinia salicis NCPPB 2530; experiment: Minimal inhibitory concentration in liquid culture; settings: 200 μl rich medium, 10^4 log-phase bacteria
[14] = test system: Salmonella typhimurium ATCC 23565; experiment: Minimal inhibitory concentration in liquid culture; settings: 200 μl rich medium, 10^4 log-phase bacteria
Salmonella Newport CD 94 = experiment: Minimal inhibitory concentration in liquid culture; settings: 200 μl rich medium, 10^4 log-phase bacteria
[15] = test system: Erwinia carotovora var atroseptica LMG 2385; experiment: Minimal inhibitory concentration in liquid culture; settings: 200 μl rich medium, 10^4 log-phase bacteria
[16] = test system: Bacillus megaterium QB 1551; experiment: Minimal inhibitory concentration in liquid culture; settings: 200 μl rich medium, 10^4 log-phase bacteria, + = no inhibition at maximal value
[17] = test system: Xanthomonas campestris pv. campestris A 902; experiment: Minimal inhibitory concentration in liquid culture; settings: 200 μl rich medium, 10^4 log-phase bacteria, + = no inhibition at maximal value
[18] = test system: Pseudomonas solanacearum ATCC 11696; settings: 200 μl rich medium, 10^4 log-phase bacteria
[19] = test system: Bordetella bronchiseptica ATCC 19395; experiment: Inhibition zone assay; parameters: key: --: "-" means that no inhibition has been found; settings: I and B 10 ul, L 5 ug
[20] = test system: Agrobacterium rhizogenes ATCC 11325; experiment: Inhibition zone assay; parameters: key: --: "-" means that no inhibition has been found; settings: I and B 10 ul, L 5 ug
[21] = test system: Azospirillum lipoferum ATCC 29707; experiment: Inhibition zone assay; parameters: key: --: "-" means that no inhibition has been found; settings: I and B 10 ul, L 5 ug
[22] = test system: Enterobacter agglomerans Gilardi 1081; experiment: Inhibition zone assay; parameters: key: --: "-" means that no inhibition has been found; settings: I and B 10 ul, L 5 ug
[23] = test system: Erwinia salicis NCPPB 2530; experiment: Inhibition zone assay; parameters: key: --: "-" means that no inhibition has been found; settings: I and B 10 ul, L 5 ug
[24] = test system: Corynebacterium insidiosum NCPPB 1109; experiment: Inhibition zone assay; settings: I and B 10 ul, L 5 ug
Description: Whole lymph or purified components, resuspended in PBS to a final volume equal to the starting material (heated lymph), was applied in 3 mm wells on agar plates seeded with the test organisms. Antibacterial activity was determined by measuring the growth-inhibition zones (in mm).

[25] = test system: Xanthomonas campestris pv. graminis NCPPB 2700; experiment: Inhibition zone assay; parameters: key: --: "-" means that no inhibition has been found; settings: I and B 10 ul, L 5 ug
[26] = test system: Bacillus thuringiensis DSM 3131; experiment: Inhibition zone assay; parameters: key: --: "-" means that no inhibition has been found; settings: I and B 10 ul, L 5 ug
[27] = test system: Micrococcus lysodeikticus LMG 4050; experiment: Inhibition zone assay; settings: I and B 10 ul, L 5 ug
[28] = test system: Serratia fonticola ATCC 298449; experiment: Inhibition zone assay; parameters: key: --: "-" means that no inhibition has been found; settings: I and B 10 ul, L 5 ug
[29] = test system: Xanthomonas campestris pv. oryzae IRN 235; parameters: key: --: "-" means that no inhibition has been found
[30] = test system: Serratia plymuthica ATCC 183; experiment: Inhibition zone assay; parameters: key: --: "-" means that no inhibition has been found; settings: I and B 10 ul, L 5 ug
[31] = test system: Klebsiella aerogenes 1961 E; experiment: Inhibition zone assay; parameters: key: --: "-" means that no inhibition has been found; settings: I and B 10 ul, L 5 ug
[32] = test system: Flavobacterium devorans NRRL B-54; experiment: Inhibition zone assay; parameters: key: --: "-" means that no inhibition has been found; settings: I and B 10 ul, L 5 ug
[33] = test system: Janthinobacterium lividum Sneath HB; experiment: Inhibition zone assay; parameters: key: --: "-" means that no inhibition has been found; settings: I and B 10 ul, L 5 ug
[34] = test system: Pseudomonas paucimobilis ATCC 29837; experiment: Inhibition zone assay; parameters: key: --: "-" means that no inhibition has been found; settings: L 5 ug
[35] = test system: Rhizobium meliloti ZB 314; experiment: Inhibition zone assay; parameters: key: --: "-" means that no inhibition has been found; settings: I and B 10 ul, L 5 ug
[36] = test system: Serratia liquefaciens DSM 30125; experiment: Inhibition zone assay; parameters: key: --: "-" means that no inhibition has been found; settings: I 10 ul, L 5 ug
[37] = test system: Agrobacterium tumefaciens DSM 3129; experiment: Inhibition zone assay; parameters: key: --: "-" means that no inhibition has been found; settings: I and B 10 ul, L 5 ug
[38] = test system: Pseudomonas cepacia ATCC 25416; experiment: Inhibition zone assay; parameters: key: --: "-" means that no inhibition has been found; settings: I and B 10 ul, L 5 ug
[39] = test system: Xanthomonas campestris pv. vesicatoria XV82-4; experiment: Inhibition zone assay; parameters: key: --: "-" means that no inhibition has been found; settings: I and B 10 ul, L 5 ug
[40] = test system: Pseudomonas aureofaciens CCEB 518; experiment: Inhibition zone assay; parameters: key: --: "-" means that no inhibition has been found; settings: I and B 10 ul, L 5 ug
[41] = test system: Pseudomonas acidovorans CuETM 83-109; experiment: Inhibition zone assay; parameters: key: --: "-" means that no inhibition has been found; settings: I and B 10 ul, L 5 ug
[42] = test system: Agrobacterium radiobacter ATCC 19358; experiment: Inhibition zone assay; parameters: key: --: "-" means that no inhibition has been found; settings: I and B 10 ul, L 5 ug
[43] = test system: Erwinia carotovora var. atroseptica NCPPB 549; experiment: Inhibition zone assay; parameters: key: --: "-" means that no inhibition has been found; settings: I and B 10 ul, L 5 ug
[44] = test system: Bacillus megaterium QMB 1551; experiment: Inhibition zone assay; settings: I and B 10 ul, L 5 ug
[45] = test system: Listeria monocytogenes B5; experiment: Inhibition zone assay; parameters: key: --: "-" means that no inhibition has been found; settings: L 5 ug
[46] = test system: Rhizobium phaseoli CIAT 899; experiment: Inhibition zone assay; parameters: key: --: "-" means that no inhibition has been found; settings: I and B 10 ul, L 5 ug
[47] = test system: Proteus morganii CuETM 77-83; experiment: Inhibition zone assay; parameters: key: --: "-" means that no inhibition has been found; settings: I and B 10 ul, L 5 ug
[48] = test system: Rhodococcus equi ATCC 25729; experiment: Inhibition zone assay; settings: I and B 10 ul, L 5 ug
[49] = test system: Corynebacterium fascians NCPPB 1488; experiment: Inhibition zone assay; parameters: key: --: "-" means that no inhibition has been found; settings: I and B 10 ul, L 5 ug
[50] = test system: Staphylococcus hominis STH B3; experiment: Inhibition zone assay; parameters: key: --: "-" means that no inhibition has been found; settings: L 5 ug
[51] = test system: Bacillus subtilis NRRL B-237; experiment: Inhibition zone assay; parameters: key: --: "-" means that no inhibition has been found; settings: I and B 10 ul, L 5 ug

CC[C@H](C)[C@H](NC(=O)[C@@H]1CCCN1C(=O)[C@H](CCCNC(=N)N)NC(=O)[C@H](CC(N)=O)NC(=O)[C@H](CC(N)=O)NC(=O)CN)C(=O)N[C@@H](Cc1ccc(O)cc1)C(=O)N[C@H](C(=O)N1CCC[C@H]1C(=O)N[C@@H](CCC(N)=O)C(=O)N1CCC[C@H]1C(=O)N[C@@H](CCCNC(=N)N)C(=O)N1CCC[C@H]1C(=O)N1CCC[C@H]1C(=O)N[C@@H](Cc1c[nH]cn1)C(=O)N1CCC[C@H]1C(=O)N[C@@H](CCCNC(=N)N)C(=O)N[C@@H](CC(C)C)C(=O)O)[C@@H](C)CC [Apid II] (H-GNNRPIYIPQPRPPHPRL-OH)
minimal inhibitory concentration [1]: 0.2 µg/mL (≈ 0.0942 µM)
minimal inhibitory concentration [2]: 1 µg/mL (≈ 0.471 µM)
minimal inhibitory concentration (Shigella flexneri CP 87): 0.1 µg/mL (≈ 0.0471 µM)
minimal inhibitory concentration [3]: > 50 µg/mL
minimal inhibitory concentration [4]: 100 µg/mL (≈ 47.1 µM)
minimal inhibitory concentration [5]: > 50 µg/mL
minimal inhibitory concentration [6]: 0.5 µg/mL (≈ 0.236 µM)
minimal inhibitory concentration [7]: 0.1 µg/mL (≈ 0.0471 µM)
minimal inhibitory concentration [8]: 2.5 µg/mL (≈ 1.18 µM)
minimal inhibitory concentration [9]: 0.2 µg/mL (≈ 0.0942 µM)
minimal inhibitory concentration (Bacillus alvei LMG 6922): > 200 µg/mL
minimal inhibitory concentration [10]: > 200 µg/mL
bactericidal activity (E. coli NCTC 9001): possessed a bactericidal activity
minimal inhibitory concentration [11]: 0.02 µg/mL (≈ 0.00942 µM)
minimal inhibitory concentration [12]: 0.2 µg/mL (≈ 0.0942 µM)
minimal inhibitory concentration [13]: 0.02 µg/mL (≈ 0.00942 µM)
minimal inhibitory concentration [14]: 0.1 µg/mL (≈ 0.0471 µM)
minimal inhibitory concentration (Salmonella Newport CD 94): 0.2 µg/mL (≈ 0.0942 µM)
minimal inhibitory concentration [15]: 0.5 µg/mL (≈ 0.236 µM)
minimal inhibitory concentration [16]: 100 µg/mL
minimal inhibitory concentration [17]: 50 µg/mL
minimal inhibitory concentration [18]: 10 µg/mL (≈ 4.71 µM)

chicken lysozyme: hen egg white lysozyme, comparison [reference compound]
diameter of growth-inhibition zone [19]: --
diameter of growth-inhibition zone [20]: --
diameter of growth-inhibition zone [21]: --
diameter of growth-inhibition zone [22]: --
diameter of growth-inhibition zone [23]: --
diameter of growth-inhibition zone [24]: 6 mm
diameter of growth-inhibition zone [25]: --
diameter of growth-inhibition zone [26]: --
diameter of growth-inhibition zone [27]: 9 mm
diameter of growth-inhibition zone [28]: --
diameter of growth-inhibition zone [29]: --
diameter of growth-inhibition zone [30]: --
diameter of growth-inhibition zone [31]: --
diameter of growth-inhibition zone [32]: --
diameter of growth-inhibition zone [33]: --
diameter of growth-inhibition zone [34]: --
diameter of growth-inhibition zone [35]: --
diameter of growth-inhibition zone [36]: --
diameter of growth-inhibition zone [37]: --
diameter of growth-inhibition zone [38]: --
diameter of growth-inhibition zone [39]: --
diameter of growth-inhibition zone [40]: --
diameter of growth-inhibition zone [41]: --
diameter of growth-inhibition zone [42]: --
diameter of growth-inhibition zone [43]: --
diameter of growth-inhibition zone [44]: 6 mm
diameter of growth-inhibition zone [45]: --
diameter of growth-inhibition zone [46]: --
diameter of growth-inhibition zone [47]: --
diameter of growth-inhibition zone [48]: 4 mm
diameter of growth-inhibition zone [49]: --
diameter of growth-inhibition zone [50]: --
diameter of growth-inhibition zone [51]: --
